Data as given in US20250002475A1 (EPICS THERAPEUTICS, priority 2023, published 2025).

What follows are compounds tested against T1, recombinant METTL3/METTL14 complex (Homo sapiens, UniProt Q86U44) (assay: METTL3/14 Scintillation Proximity Assay (SPA), RNA methyltransferase activity). Conditions: 5.31 nM METTL3/14 complex, 250 nM RNA substrate, 1 μM 3H-SAM, 90 min; for compounds marked * best of the two separated forms.
T1 construct: purchased Active Motif 311970; host or cells: Sf9 cells
Format: biochemical

T1 sequence (Q86U44 whole entry): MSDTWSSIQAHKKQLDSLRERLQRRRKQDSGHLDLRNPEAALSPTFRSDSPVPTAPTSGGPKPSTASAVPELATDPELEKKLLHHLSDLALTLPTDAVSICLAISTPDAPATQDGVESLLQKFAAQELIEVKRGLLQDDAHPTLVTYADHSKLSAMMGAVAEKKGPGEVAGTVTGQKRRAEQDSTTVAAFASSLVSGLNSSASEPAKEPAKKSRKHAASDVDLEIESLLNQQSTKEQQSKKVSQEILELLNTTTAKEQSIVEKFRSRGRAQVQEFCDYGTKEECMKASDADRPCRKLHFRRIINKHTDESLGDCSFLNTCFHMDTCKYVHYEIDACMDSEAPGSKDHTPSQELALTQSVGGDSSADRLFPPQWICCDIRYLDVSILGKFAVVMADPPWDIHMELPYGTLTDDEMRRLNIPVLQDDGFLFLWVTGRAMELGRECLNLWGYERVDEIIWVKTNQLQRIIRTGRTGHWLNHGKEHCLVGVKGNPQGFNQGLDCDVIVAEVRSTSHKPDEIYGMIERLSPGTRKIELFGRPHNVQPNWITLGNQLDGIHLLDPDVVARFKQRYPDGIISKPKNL
T1 sequence (Q9HCE5 whole entry partner): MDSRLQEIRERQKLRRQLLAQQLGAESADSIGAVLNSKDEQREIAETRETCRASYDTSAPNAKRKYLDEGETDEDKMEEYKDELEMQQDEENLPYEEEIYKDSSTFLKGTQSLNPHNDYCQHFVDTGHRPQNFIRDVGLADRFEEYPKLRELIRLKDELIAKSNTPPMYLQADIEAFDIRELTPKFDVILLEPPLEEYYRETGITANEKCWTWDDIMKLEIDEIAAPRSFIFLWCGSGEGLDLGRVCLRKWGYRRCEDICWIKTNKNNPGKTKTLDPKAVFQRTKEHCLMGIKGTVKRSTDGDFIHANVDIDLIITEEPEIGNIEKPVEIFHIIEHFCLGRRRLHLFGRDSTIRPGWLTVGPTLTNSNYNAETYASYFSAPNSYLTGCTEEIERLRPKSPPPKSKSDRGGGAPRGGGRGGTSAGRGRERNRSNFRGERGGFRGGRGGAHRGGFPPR

Row | Structure (SMILES) | IC50 [nM]
1 | CC(n1cc(-c2cncc(Cl)c2)nn1)n1ccc(N2CCC[C@@H](NCC3CCC3)C2)cc1=O (mixture of isomers) [Compound 078, 1-(1-(4-(5-chloropyridin-3-yl)-1H-1,2,3-triazol-1-yl)ethyl)-4-((R)-3-((cyclobutylmethyl)amino)piperidin-1-yl)pyridin-2(1H)-one] | ≤ 50
2 | Cc1cncc(-c2cn(C(C)n3ccc(N4CCC[C@@H](NCC5CCC5)C4)cc3=O)nn2)c1 (mixture of isomers) [Compound 080, 4-((R)-3-((cyclobutylmethyl)amino)piperidin-1-yl)-1-(1-(4-(5-methylpyridin-3-yl)-1H-1,2,3-triazol-1-yl)ethyl)pyridin-2(1H)-one] | ≤ 50
3 | CNc1ccn2c(=O)cc(C(=O)NC(C)c3ccc(N4CCC[C@@H](NCC5CCC5)C4)nn3)nc2c1 (mixture of isomers) [Compound 091, N-(1-(6-((R)-3-((cyclobutylmethyl)amino)piperidin-1-yl)pyridazin-3-yl)ethyl)-8-(methylamino)-4-oxo-4H-pyrido[1,2-a]pyrimidine-2-carboxamide] | ≤ 50
4 | COc1ccc(C(=O)NC(C)c2ccc(N3CCC[C@@H](NCC4CCC4)C3)nn2)c2cn[nH]c12 (mixture of isomers) [Compound 092, N-(1-(6-((R)-3-((cyclobutylmethyl)amino)piperidin-1-yl)pyridazin-3-yl)ethyl)-7-methoxy-1H-indazole-4-carboxamide] | ≤ 50
5 | CNc1cncc(-c2cn(C(C)n3ccc(N4CCC[C@@H](NCC5CCC5)C4)cc3=O)nn2)c1 (mixture of isomers) [Compound 096, 4-((R)-3-((cyclobutylmethyl)amino)piperidin-1-yl)-1-(1-(4-(5-(methylamino)pyridin-3-yl)-1H-1,2,3-triazol-1-yl)ethyl)pyridin-2(1H)-one] | ≤ 50
6 | CC(c1ccc(N2CCC[C@@H](NCC3CCC3)C2)cn1)n1cc(-c2cc(=O)n3ccccc3n2)nn1 (mixture of isomers) [Compound 099, 2-(1-(1-(5-((R)-3-((cyclobutylmethyl)amino)piperidin-1-yl)pyridin-2-yl)ethyl)-1H-1,2,3-triazol-4-yl)-4H-pyrido[1,2-a]pyrimidin-4-one] | ≤ 50
7 | CCOc1cncc(-c2cn(C(C)n3ccc(N4CCC[C@@H](NCC5CCC5)C4)cc3=O)nn2)c1 (mixture of isomers) [Compound 103, 4-((R)-3-((cyclobutylmethyl)amino)piperidin-1-yl)-1-(1-(4-(5-ethoxypyridin-3-yl)-1H-1,2,3-triazol-1-yl)ethyl)pyridin-2(1H)-one] | ≤ 50
8 | COc1cncc(-c2nnn(C(C)n3ccc(N4CCC[C@@H](NCC5CCC5)C4)cc3=O)n2)c1 (mixture of isomers) [Compound 106, 4-((R)-3-((cyclobutylmethyl)amino)piperidin-1-yl)-1-(1-(5-(5-methoxypyridin-3-yl)-2H-tetrazol-2-yl)ethyl)pyridin-2(1H)-one] | ≤ 50
9 | CC(NC(=S)c1cc(=O)n2ccccc2n1)c1ccc(N2CCC[C@@H](NCC3CCC3)C2)nn1 (mixture of isomers) [Compound 111, N-(1-(6-((R)-3-((cyclobutylmethyl)amino)piperidin-1-yl)pyridazin-3-yl)ethyl)-4-oxo-4H-pyrido[1,2-a]pyrimidine-2-carbothioamide] | 50 to 500
10 | CC(NC(=O)c1cc(=O)n2ccccc2n1)c1ccc(N2CCC[C@@H](NCC3CC3)C2)cn1 (mixture of isomers) [Compound 112, N-(1-(5-((R)-3-((cyclopropylmethyl)amino)piperidin-1-Yl)pyridin-2-yl)ethyl) -4-oxo-4H-pyrido[1,2-a]pyrimidine-2-carboxamide] | ≤ 50
11 | COc1cncc(-n2cc(C(C)n3ccc(N4CCC[C@@H](NCC5CCC5)C4)cc3=O)cn2)c1 (mixture of isomers) [Compound 120, 4-((R)-3-((cyclobutylmethyl)amino)piperidin-1-yl)-1-(1-(1-(5-methoxypyridin-3-yl)-1H-pyrazol-4-yl)ethyl)pyridin-2(1H)-one] | ≤ 50
12 | CNc1cnnc(-c2cn(C(C)n3ccc(N4CCC[C@@H](NCC5CCC5)C4)cc3=O)nn2)c1 (mixture of isomers) [Compound 122, 4-((R)-3-((cyclobutylmethyl)amino)piperidin-1-yl)-1-(1-(4-(5-(methylamino)pyridazin-3-yl)-1H-1,2,3-triazol-1-yl)ethyl)pyridin-2(1H)-one] | ≤ 50
13 | CC(n1cc(-c2cncc(N3CCOCC3)c2)nn1)n1ccc(N2CCC[C@@H](NCC3CCC3)C2)cc1=O (mixture of isomers) [Compound 129, 4-((R)-3-((cyclobutylmethyl)amino)piperidin-1-yl)-1-(1-(4-(5-morpholinopyridin-3-yl)-1H-1,2,3-triazol-1-yl)ethyl)pyridin-2(1H)-one] | ≤ 50
14 | COc1cncc(-c2cc(C(C)n3ccc(N4CCC[C@@H](NCC5CCC5)C4)cc3=O)on2)c1 (mixture of isomers) [Compound 130, 4-((R)-3-((cyclobutylmethyl)amino)piperidin-1-yl)-1-(1-(3-(5-methoxypyridin-3-yl)isoxazol-5-yl)ethyl)pyridin-2(1H)-one] | ≤ 50
15 | COc1cncc(-n2cc(C(C)n3ccc(N4CCC[C@@H](NCC5CCC5)C4)cc3=O)nn2)c1 (mixture of isomers) [Compound 132, 4-((R)-3-((cyclobutylmethyl)amino)piperidin-1-yl)-1-(1-(1-(5-methoxypyridin-3-yl)-1H-1,2,3-triazol-4-yl)ethyl)pyridin-2(1H)-one] | ≤ 50
16 | COc1cc(-c2cn(Cc3ccc(N4CCC[C@@H](NC5CCOC5)C4)nn3)nn2)c2cn[nH]c2c1 (single isomer, unassigned) [Compound 033] | ≤ 50
17 | COc1cc(-c2cn(Cc3ccc(N4CCC[C@@H](NC(C)C5CC5)C4)nn3)nn2)c2cn[nH]c2c1 (single isomer, unassigned) [Compound 045] | ≤ 50
18 | COc1cncc(-c2cn(C(c3ccc(N4CCC[C@@H](NCC5CCC5)C4)nn3)C(F)(F)F)nn2)c1 (single isomer, unassigned) [Compound 064] | ≤ 50
19 | COc1cncc(-c2cn(C(c3ccc(N4CCC[C@@H](NCC5CCC5)C4)nn3)C3CC3)nn2)c1 (single isomer, unassigned) [Compound 084] | ≤ 50
20 | COc1cncc(-c2cn(C(C)n3ccc(N4CCC[C@@H](NCC5CCC5)C4)cc3=O)nn2)n1 (single isomer, unassigned) [Compound 105] | ≤ 50
21 | COc1cnc(C#N)c(-c2cn(C(C)n3ccc(N4CCC[C@@H](NCC5CCC5)C4)cc3=O)nn2)c1 (single isomer, unassigned) [Compound 109] | ≤ 50
22 | CC(NC(=O)c1cc(=S)n2ccccc2n1)c1ccc(N2CCC[C@@H](NCC3CCC3)C2)nn1 (single isomer, unassigned) [Compound 110] | ≤ 50
23 | CC(NC(=O)c1cc(=O)n2ccccc2n1)c1ccc(N2CCC[C@@H](NC3CCCC3)C2)cn1 (single isomer, unassigned) [Compound 117] | 50 to 500

Second part, the compound after the results:

Row | IC50 [nM] | Structure (SMILES)
24 | ≤ 50 | CC(c1ccc(N2CCC[C@@H](NCC3CCC3)C2)nn1)n1cc(-c2cncc(N(C)C)c2)nn1 (mixture of isomers) [Compound 133, 5-(1-(1-(6-((R)-3-((cyclobutylmethyl)amino)piperidin-1-yl)pyridazin-3-yl)ethyl)-1H-1,2,3-triazol-4-yl)-N,N-dimethylpyridin-3-amine]
25 | ≤ 50 | CC(n1cc(-c2cncc(-n3cccn3)c2)nn1)n1ccc(N2CCC[C@@H](NCC3CCC3)C2)cc1=O (mixture of isomers) [Compound 146, 1-(1-(4-(5-(1H-pyrazol-1-yl)pyridin-3-yl)-1H-1,2,3-triazol-1-yl)ethyl)-4-((R)-3-((cyclobutylmethyl)amino)piperidin-1-yl)pyridin-2(1H)-one]
26 | 50 to 500 | CC(C(=O)Nc1cncc(N(C)C)c1)n1ccc(N2CCC[C@@H](NCC3CCC3)C2)cc1=O (mixture of isomers) [Compound 162, 2-(4-((R)-3-((cyclobutylmethyl)amino)piperidin-1-yl)-2-oxopyridin-1(2H)-yl)-N-(5-(dimethylamino)pyridin-3-yl)propanamide]
27 | 50 to 500 | CC1CCCN1c1cncc(-c2cn(C(C)n3ccc(N4CCC[C@@H](NCC5CCC5)C4)cc3=O)nn2)c1 (mixture of isomers) [Compound 172]
28 | ≤ 50 | COc1cncc(-c2cc(C(C)n3ccc(N4CCC[C@@H](NCC5CCC5)C4)cc3=O)sn2)c1 (mixture of isomers) [Compound 204, 4-((R)-3-((cyclobutylmethyl)amino)piperidin-1-yl)-1-(1-(3-(5-methoxypyridin-3-yl)isothiazol-5-yl)ethyl)pyridin-2(1H)-one]
29 | ≤ 50 | CC(c1cnn(-c2cc(N(C)C)cnn2)c1)n1ccc(N2CCC[C@@H](NCC3CC3)C2)cc1=O (mixture of isomers) [Compound 224, 4-((R)-3-((cyclopropylmethyl)amino)piperidin-1-yl)-1-(1-(1-(5-(dimethylamino)pyridazin-3-yl)-1H-pyrazol-4-yl)ethyl)pyridin-2(1H)-one]
30 | 50 to 500 | COc1cnnc(-c2cn(C(C)c3ccc(N4CCC[C@@H](NCC5CCC5)C4)nn3)nn2)c1 (single isomer, unassigned) [Compound 137]
31 | ≤ 50 | CC(n1cc(-c2cncc(Br)c2)nn1)n1ccc(N2CCC[C@@H](NCC3CCC3)C2)cc1=O (single isomer, unassigned) [Compound 152]
32 | ≤ 50 | COc1cncc(-c2ncc(C(C)(O)c3ccc(N4CCC[C@@H](NCC5CCC5)C4)cn3)s2)c1 (single isomer, unassigned) [Compound 165]
33 | ≤ 50 | COc1cc(-c2ncc(C(C)c3ccc(N4CCC[C@@H](NCC5CCC5)C4)cn3)s2)c2cn[nH]c2c1 (single isomer, unassigned) [Compound 167]
34 | ≤ 50 | CC(n1cnc(-c2cc(=O)n3ccccc3n2)c1)n1ccc(N2CCC[C@@H](NCC3CCC3)C2)cc1=O (single isomer, unassigned) [Compound 170]
35 | ≤ 50 | COc1cncc(-c2nnn(C(C)c3ccc(N4CCC[C@@H](NCC5CCC5)C4)nn3)n2)c1 (single isomer, unassigned) [Compound 190]
36 | ≤ 50 | CC(n1cc(-c2cncc(N(C)C(F)(F)F)c2)nn1)n1ccc(N2CCC[C@@H](NCC3CC3)C2)cc1=O (single isomer, unassigned) [Compound 236]
37 | 50 to 500 | Cc1cncc(-c2cn(C(C)n3ccc(N4CCC[C@@H](NCC5CC5)C4)cc3=O)nn2)n1 (single isomer, unassigned) [Compound 255]
